Experimental data published in ChEMBL document CHEMBL1156139, “N-Bridged bicyclic sulfonamides as inhibitors of gamma-secretase” (Bioorg Med Chem Lett, 2009).

Legend:
in vitro [1] = conditions: mouse, liver microsomes
[2] = Clearance in rat; type: ADME, organism-based; conditions: in vivo
[3] = AUC in rat; type: ADME, organism-based; conditions: plasma
[4] = Oral bioavailability in rat; type: ADME, organism-based; conditions: in vivo
in vitro [5] = conditions: human, liver microsomes
in vitro [6] = conditions: human, liver microsomes; remark: listed apart in the source
[7] = Half life in rat; type: ADME, organism-based; conditions: in vivo
in vitro [8] = conditions: mouse, liver microsomes; remark: listed apart in the source
[9] = mouse, microsomes, 0.5 h, 2 µM
Liver microsomes [10] = conditions: human, 0.5 h, 1 µM
Liver microsomes [11] = conditions: human, 0.5 h, 2 µM
[12] = mouse, microsomes, 0.5 h, 1 µM

Structure (SMILES) | remaining at 0.5 h, 1 µM (in vitro [1]; Stability) [%] | remaining at 0.5 h, 2 µM (in vitro [5]; Stability) [%] | remaining at 0.5 h, 1 µM (in vitro [6]; Stability) [%] | remaining at 0.5 h, 2 µM (in vitro [8]; Stability) [%] | Stability [9] | Stability (Liver microsomes [10]) | Stability (Liver microsomes [11]) | Stability [12] | further results
O=S(=O)(c1ccc(Cl)cc1)N1C2CCCC1c1cn[nH]c1C2 (stereo unspecified) | 15 | 0 | 48 | 5 |  |  |  |  | clearance [2]: 38.9 mL/min/kg; AUC [3]: 0.16 µM·h; bioavailability [4]: 2%; half-life [7]: 0.4 h
Cl.O=S(=O)(c1ccc(Cl)cc1)N1C2COCC1c1cn[nH]c1C2 (stereo unspecified) |  |  |  |  | 94% | 81% | 71% | 78% | 
CN(C)C(=O)N1CC2Cc3[nH]ncc3C(C1)N2S(=O)(=O)c1ccc(Cl)cc1 (stereo unspecified) | 56 |  | 86 |  | Not Active |  | Not Active |  | 
O=S(=O)(c1ccc(Cl)cc1)N1C2Cc3[nH]ncc3C1CC(/C=C\C(F)(F)F)C2 (stereo unspecified) | 17 |  | 38 |  | Not Active |  | Not Active |  | 
O=S(=O)(c1ccc(Cl)cc1)N1C2Cc3[nH]ncc3C1CC(/C=C\Cl)C2 (stereo unspecified) | 3 |  | 14 |  | Not Active |  | Not Active |  | 
CS(=O)(=O)N1CC2Cc3[nH]ncc3C(C1)N2S(=O)(=O)c1ccc(Cl)cc1 (stereo unspecified) |  |  |  |  |  |  |  |  | remaining at 0.5 h, 1 µM (in vitro [1]): 80%; remaining at 0.5 h, 2 µM (in vitro [5]): 55%; remaining at 0.5 h, 1 µM (in vitro [6]): 84%; remaining at 0.5 h, 2 µM (in vitro [8]): 96%
O=C(O)C1CC2Cc3[nH]ncc3C(C1)N2S(=O)(=O)c1ccc(Cl)cc1 (stereo unspecified) |  |  |  |  | Not Active | Not Active | Not Active | Not Active | 
O=S(=O)(c1ccc(Cl)cc1)N1C2Cc3[nH]ncc3C1CC(/C=C/Cl)C2 (stereo unspecified) | 7 | 1 | 6 | 37 |  |  |  |  | 
O=S(=O)(c1ccc(Cl)cc1)N1C2Cc3[nH]ncc3C1CC(/C=C/C(F)(F)F)C2 (stereo unspecified) | 36 | 2 | 6 | 39 |  |  |  |  | 
N#CC1CC2Cc3[nH]ncc3C(C1)N2S(=O)(=O)c1ccc(Cl)cc1 (stereo in doubt) |  | 45 |  | 81 |  | 70% |  | 74% | clearance [2]: 28.4 mL/min/kg; AUC [3]: 3.4 µM·h; bioavailability [4]: 21%; half-life [7]: 1.02 h
O=S(=O)(c1ccc(Cl)cc1)N1C2COCC1c1cn[nH]c1C2 (stereo in doubt) |  |  |  |  | 100% | 78% | 86% | 80% | clearance [2]: 31.2 mL/min/kg; AUC [3]: 2.9 µM·h; bioavailability [4]: 19%; half-life [7]: 1.15 h
O=S(=O)(c1ccc(Cl)cc1)N1C2COCC1c1cn[nH]c1C2 (stereo in doubt; 32) | 75 | 71 |  | 93 |  | 100% |  |  | 
N#CC1CC2Cc3[nH]ncc3C(C1)N2S(=O)(=O)c1ccc(Cl)cc1 (stereo in doubt; form 1) |  |  |  |  |  | 72% |  | 80% | 
N#CC1CC2Cc3[nH]ncc3C(C1)N2S(=O)(=O)c1ccc(Cl)cc1 (stereo in doubt; form 2) | 86 |  | 68 |  | Not Active |  | Not Active |  | 
